In the test the target is T1, human full-length MKNK1 (Homo sapiens, UniProt Q9BUB5, T385D).
T1 construct: GST (N); purchased Carna Biosciences 02-145; host or cells: insect cells (baculovirus expression system)
T1 sequence (Q9BUB5 1-424 isoform Q9BUB5-2 T344D): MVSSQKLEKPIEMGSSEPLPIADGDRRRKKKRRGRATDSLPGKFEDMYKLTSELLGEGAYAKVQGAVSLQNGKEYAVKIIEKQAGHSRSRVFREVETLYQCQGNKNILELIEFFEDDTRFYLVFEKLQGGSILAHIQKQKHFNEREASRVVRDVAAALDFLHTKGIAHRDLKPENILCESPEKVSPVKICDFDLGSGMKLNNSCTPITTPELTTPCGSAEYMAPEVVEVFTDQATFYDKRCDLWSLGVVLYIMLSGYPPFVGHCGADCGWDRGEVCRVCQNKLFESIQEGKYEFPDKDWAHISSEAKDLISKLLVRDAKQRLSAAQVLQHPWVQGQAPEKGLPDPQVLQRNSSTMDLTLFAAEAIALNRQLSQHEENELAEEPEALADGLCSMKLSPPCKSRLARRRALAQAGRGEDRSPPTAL
As to the kind of experiment: MKNK1 kinase high ATP assay (TR-FRET). The test is classed as biochemical. The conditions noted are these: 2 mM ATP, after preincubation with MKNK1; read-out: MKNK1 IC50 (MKNK1 high ATP). The essentials:
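Compound was preincubated 15 min at 22° C. with MKNK1 in 50 mM HEPES pH 7.5, 5 mM MgCl2, 1.0 mM DTT, then the reaction ran 30 min at 22° C. with 2 mM ATP and 0.06 μM biotinylated peptide (final).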
As to `CCOc1cc2[nH]ncc2cc1Nc1ncnc2sc3c(c12)CCC(C(=O)N(CC)CCOC)C3` (racemic) [Example 273, (RS)-4-[(6-Ethoxy-1H-indazol-5-yl)amino]-N-ethyl-N-(2-methoxyethyl)-5,6,7,8-tetrahydro[1]benzothieno[2,3-d]pyrimidine-7-carboxamide], the IC50 amounted to 0.2 nM.
For the molecule `CCOc1cc2[nH]ncc2cc1Nc1ncnc2sc3c(c12)CCC(C(=O)N1CCC2(CC2)C1)C3` (racemic) [Example 274, (RS)-5-Azaspiro[2.4]hept-5-yl{4-[(6-ethoxy-1H-indazol-5-yl)amino]-5,6,7,8-tetrahydro[1]benzothieno[2,3-d]pyrimidin-7-yl}methanone], the IC50 stood at 1 nM.
In the case of `COc1cc2[nH]ncc2cc1Nc1ncnc2sc3c(c12)CCC(C(=O)N1CC(OC(=O)N(C)C)C1)C3` (racemic) [Example 275, (RS)-1-({4-[(6-Methoxy-1H-indazol-5-yl)amino]-5,6,7,8-tetrahydro[1]benzothieno[2,3-d]pyrimidin-7-yl}carbonyl)azetidin-3-yl dimethylcarbamate], the IC50 is 19.8 nM.
For the molecule `CN(C)C(=O)C1CCc2c(sc3ncnc(Nc4cc5cn[nH]c5cc4OCCCN=[N+]=[N-])c23)C1` (racemic) [Example 276, (RS)-4-{[6-(3-Azidopropoxy)-1H-indazol-5-yl]amino}-N,N-dimethyl-5,6,7,8-tetrahydro[1]benzothieno[2,3-d]pyrimidine-7-carboxamide], the IC50 was 3.9 nM.
With `NC(=O)C1CCc2c(sc3ncnc(Nc4ccc5[nH]ncc5c4)c23)C1` (stereo not shown) [Example 3, 4-(1H-Indazol-5-ylamino)-5,6,7,8-tetrahydro[1]benzothieno[2,3-d]pyrimidine-7-carboxamide], the half-inhibitory concentration (IC50) was found to be 8 nM.
The same measure for `O=C(Nc1ccccc1)C1CCc2c(sc3ncnc(Nc4ccc5[nH]ncc5c4)c23)C1` (stereo not shown) [Example 5, 4-(1H-Indazol-5-ylamino)-N-phenyl-5,6,7,8-tetrahydro[1]benzothieno[2,3-d]pyrimidine-7-carboxamide]: 9 nM; for `CC(C)NC(=O)C1CCc2c(sc3ncnc(Nc4ccc5[nH]ncc5c4)c23)C1` (stereo not shown) [Example 6, 4-(1H-Indazol-5-ylamino)-N-isopropyl-5,6,7,8-tetrahydro[1]benzothieno[2,3-d]pyrimidine-7-carboxamide]: 4 nM; for `O=C(NCC1CC1)C1CCc2c(sc3ncnc(Nc4ccc5[nH]ncc5c4)c23)C1` (stereo not shown) [Example 7, N-(Cyclopropylmethyl)-4-(1H-indazol-5-ylamino)-5,6,7,8-tetrahydro[1]benzothieno[2,3-d]pyrimidine-7-carboxamide]: 6 nM.
Turning to `CN1CCN(C(=O)C2CCc3c(sc4ncnc(Nc5ccc6[nH]ncc6c5)c34)C2)CC1` (stereo not shown) [Example 8, [4-(1H-Indazol-5-ylamino)-5,6,7,8-tetrahydro[1]benzothieno[2,3-d]pyrimidin-7-yl](4-methylpiperazin-1-yl)methanone], the IC50 was found to be 11 nM.
For the molecule `CNC(=O)C1CCc2c(sc3ncnc(Nc4ccc5[nH]ncc5c4)c23)C1` (stereo not shown) [Example 11, 4-(1H-indazol-5-ylamino)-N-methyl-5,6,7,8-tetrahydro[1]benzothieno[2,3-d]pyrimidine-7-carboxamide], the IC50 came out at 10 nM.
As to `COc1cccc(NC(=O)C2CCc3c(sc4ncnc(Nc5ccc6[nH]ncc6c5)c34)C2)c1` (stereo not shown) [Example 13, 4-(1H-indazol-5-ylamino)-N-(3-methoxyphenyl)-5,6,7,8-tetrahydro[1]benzothieno[2,3-d]pyrimidine-7-carboxamide], the IC50 came to 7 nM.
Regarding `COc1ccc(NC(=O)C2CCc3c(sc4ncnc(Nc5ccc6[nH]ncc6c5)c34)C2)cc1` (stereo not shown) [Example 14, 4-(1H-indazol-5-ylamino)-N-(4-methoxyphenyl)-5,6,7,8-tetrahydro[1]benzothieno[2,3-d]pyrimidine-7-carboxamide], the concentration for half-maximal inhibition (IC50) is 7 nM.
In the case of `Cc1ccccc1NC(=O)C1CCc2c(sc3ncnc(Nc4ccc5[nH]ncc5c4)c23)C1` (stereo not shown) [Example 15, 4-(1H-indazol-5-ylamino)-N-(2-methylphenyl)-5,6,7,8-tetrahydro[1]benzothieno[2,3-d]pyrimidine-7-carboxamide], the concentration for half-maximal inhibition (IC50) worked out at 3 nM.

The record behind these values is patent US9540392B2, “Thienopyrimidines” (BAYER PHARMA AKTIENGESELLSCHAFT, priority 2012, dated 2017).
